Experimental data published in US11149277B2, “Method of producing enriched exosomes” (National Health Research Institutes, priority 2016, dated 2021).

Columns and labels:
NAMECs [1] = assay: RT2 Profiler PCR arrays of signaling pathway target genes; assay type: cell-based, human; details: 48-hour treatment
Method: The percentages of the target genes which, relative to NAMEC control cells, were inhibited, unchanged, or activated in GW627368X-treated NAMECs are presented in the plot.
To evaluate whether there is selective release of components of alternative signaling pathways, the activation and suppression of signaling pathways in GW-treated NAMECs were analyzed using RT2 Profiler PCR arrays. […] The decrease of p-Akt in GW-treated NAMECs and the enrichment of p-Akt in GW induced exosomes was reflected in inactivation of PI3K/Akt-signaling. Thus, EP4 antagonists are likely to interfere with the Akt-dependent signaling pathway by decreasing cellular p-Akt via exosome release.

MCF-7 cells = assay: NTA and EV protein of CM-P4 fractions of MCF-7 cells; assay type: cell-based, human; details: increasing concentrations of GW
Text: (§1) (A) Quantification of EV/exosome release, shown as the number of particles in the CM-P4 fractions released per cell, from MCF-7 and MDA-MB-231 breast cancer cells treated with vehicle or with the indicated concentrations of GW627368X. Particles in the P4 fractions were counted using nanoparticle tracking analysis. Data are means±SEM (n=10). *P≤0.05, ***P≤0.001. (B) Quantification of the total EV protein released from MCF-7 and MDA-MB-231 cells treated with vehicle or with the indicated concentrations of GW627368X. The amounts (m) of protein present per cell in the conditioned medium P4 fractions are presented as means±SEM (n=3). *P≤0.05; (C) Protein levels in the P4 EV/exosome fractions and cell lysates, analyzed by Western blot. Culture media and cell lysates were collected from the same numbers of MCF-7 and MDA-MB-231 cells treated with vehicle or with GW627368X (GW), at the indicated concentrations, for 4 days. The P4 fractions of the culture media, containing EVs, were isolated. […]
(§2) We next examined whether blocking EP4-mediated signaling with an EP4 antagonist can elicit EV-mediated removal of CSC proteins (e.g., mesenchymal markers and stem cell markers) in the human breast carcinoma MCF-7 and MDA-MB-231 cell lines. P4 fractions from the conditioned media (CM-P4) of GW-treated MCF-7 and MDA-MB-231 cells were analyzed using NTA (FIG. 21, A). […]

MDA-MB-231 cells = assay: NTA and EV protein of CM-P4 fractions of MDA-MB-231 cells; assay type: cell-based, human
Text: as §1, §2

neural stem cells (NSCs) = assay: EV/exosome markers and SOX2 in neural stem cells; assay type: cell-based; details: GW for 4 days
Text: FIG. 10 includes blots and a graph. (A) is a graph showing vesicle number analysis of GW-treated mesenchymal stem cells (MSCs) P4 fractions. The CM-P4 GW-treated MSCs were collected and subjected to NanoSight Nanoparticle Tracking Analysis (NTA). Quantification of EV/exosome release is shown as the ratio of [vesicle number]/[cell number]. Data are means±SEM (n=3). ***P≤0.001. (B) is a set of blots showing the protein contents measured in the EV/exosome fraction released by MSCs treated with vehicle DMSO (MSC) or EP4 antagonists (MSCGW). The culture media (D1-4: conditioned medium from day 1 to day 4; D5-8: conditioned medium from day 5 to day 8) were collected from MSCs treated with vehicle (MSC), or GW (MSCGW) for 8 days. (C) is a set of blots showing the protein contents measured in the EV/exosome fraction released by neural stem cells (NSCs) treated with vehicle DMSO or EP4 antagonists. The culture media were collected from […] treated with DMSO or GW for 4 days. EV/exosome protein released by the same number of NSCs was loaded in the Western blotting.
Isolated neural stem cells (NSCs) were cultured in NSC medium (225 ml low glucose DMEM, 225 ml F12, 50 ml vesicle-depleted Bovine serum) with or without an EP4 antagonist (GW at 20-30 μg/ml) for 4 days. The culture medium was supplied with 10-15 μg/ml of GW on the third day of the cultural period. […]

NAMECs [2] = assay: Resistance of NAMECs to 0.05% trypsin (MET); assay type: cell-based, human; details: 4 days treatment
Method: FIG. 3 includes a set of images and two graphs. (A) is a set of bright-field images of NAMECs treated with vehicle, GW627368X, Dynasore (1 μM), or GW627368X plus Dynasore (0.5, 1, 1.5 μM) for 4 days. Scale bar, 100 μm. (B) is a graph showing the percentage of NAMECs treated with vehicle, GW627368X, Dynasore (1 μM), or GW627368X plus Dynasore (0.75 and 1 μM) that were resistant to 0.05% trypsin. Data are means±SEM, (n=3). ***P≤0.001. (C) is a graph showing Boyden chamber migration of NAMECs treated with vehicle (Crl), GW627368X, Dynasore (1 μM), or GW627368X plus Dynasore (0.5, 0.75, 1 μM) for 4 days. Data are means±SEM (n=3). **P≤0.005. ***P≤0.001.

For `CCOc1c2c(c(OCC)c3ccccc13)C(=O)N(c1ccc(CC(=O)NS(=O)(=O)c3ccccc3)cc1)C2` [GW627368X], the “signaling pathways most inhibited” value (NAMECs [1]) was “PI3K/Akt, TGF-β, Wnt and androgen pathways”, the “numbers of EVs released” value (MCF-7 cells) was “modestly increased” and the “amount of protein per cell in the EV/exosome fraction” value (MDA-MB-231 cells; GW-treated MDA-MB-231) was 10 fold. For the same compound, the “numbers of EVs released” value (MDA-MB-231 cells; increasing concentrations of GW) was “modestly increased”, the “content of exosomal markers CD81 and GAPDH in NSC culture” value (neural stem cells (NSCs)) was “increased” and the “expression level of NSC marker SOX2 vs non-treated NSCs” value (neural stem cells (NSCs)) was “much lower”. The “resistance to disassociation by 0.05% trypsin” value (NAMECs [2]) was “more resistant”.
